Measurements: patent US5952298A, “Cryptophycins” (priority 1995, dated 1999)
Entries after “also recorded” stand apart in the source; their conditions may differ. Like-named read-outs stand apart in the source and are kept apart here.

How the values were obtained:
[1] = tested on: Human ovarian carcinoma cells (SKOV3); test: SKOV3 cell proliferation (SRB staining, Example 10); format: cell-based; conditions: SKOV3 treated 24 hours with IC50 dose, then drug-free medium
[2] = tested on: A-10 rat aortic smooth muscle cells; format: cell-based
Protocol: A-10 cells were grown to near-confluency on glass coverslips in BME/10% FBS. Compounds in PBS were added to the indicated final concentrations and cells were incubated for an additional 24 hours. For the staining of microtubules and intermediate filaments, the cells were fixed with cold methanol and incubated with PBS containing 10% calf serum to block nonspecific binding sites. Cells were then incubated at 37° C. for 60 min with either monoclonal anti-β-tubulin or with monoclonal anti-vimentin at dilutions recommended by the manufacturer. Bound primary antibodies were subsequently visualized by a 45-minute incubation with fluorescein-conjugated rabbit antimouse IgG. The coverslips were mounted on microscope slides and the fluorescence patterns were examined and photographed using a Zeiss Photomicroscope Ill equipped with epifluorescence optics for fluorescein. […] PBS containing 100 nM TRITC-phalloidin was then added and the mixture was allowed to incubate for 45 min at 37° C. The cells were washed rapidly three times with PBS before the coverslips were mounted and immediately photographed as described above.
After 24 hours, microtubules and vimentin intermediate filaments were visualized by indirect immunofluorescence and microfilaments were stained using TRITC-phalloidin. The morphological effects of each drug were examined. […] Vimentin intermediate filaments were also evenly distributed throughout the cytoplasm, while bundles of microfilaments were concentrated along the major axis of the cell.

[3] = tested on: tumor (leukemia) and normal cell (CFUGM) lines; test: Valeriote assay; format: cell-based; conditions: 5 μg/disk
Protocol: ^b N = nonselective towards tumor (leukemia) and normal cell (CFUGM)
LL = lymphocytic leukemia selective (ZL1210 - ZCFUM ≥ 25
ML = acute myelogenous leukemia (AML) selective (ZAML - ZCFUGM

[4] = tested on: murine leukemia (L1210 or P388), murine solid tumor, human solid tumor and low malignancy fibroblast (LML) cells
[5] = tested on: KB (human nasopharyngeal carcinoma); test: Cytotoxicity against KB cell line; format: cell-based
[6] = tested on: LoVo (human colon carcinoma); test: Cytotoxicity against LoVo cell line; format: cell-based
[7] = tested on: SKOV3 (human ovarian carcinoma); test: Cytotoxicity against SKOV3 cell line (Table 2); format: cell-based
[8] = tested on: colon adenocarcinoma #38 (Colon 38, C38); conditions: Exp 1560; SC Colon 38; 8 IV inj.; 10.3 mg/kg total dose
[9] = tested on: H125 Human Adenosq-lung; conditions: Exp 1823; SC H125 Human Adenosq-lung; 8 IV inj.; 14.4 mg/kg total dose
Protocol: (§1) Gross log kill is defmed as T-C/3.2 Td where T is the median time in days for the tumors of the treated group to reach 750 mg, C is the median time in days for the tumors of the control group to reach 750 mg, and Td is the tumor volume doubling time. […] An activity rating of +++ to ++++, which is indicative of clinical activity, is needed to effect partial or complete regression of 100-300 mg size masses of most transplanted solid tumors of mice.

[10] = tested on: murine and human tumors implanted in mice
Protocol: as §1

[11] = tested on: strains of Cryptococcus; conditions: found by researchers at Merck; cited from earlier work
[12] = tested on: MX-1 Human Breast; test: In vivo activity, SC MX-1 tumor; conditions: Exp 1806; SC MX-1 Human Breast; 8 IV inj.; 12 mg/kg total dose
Protocol: as §1

[13] = tested on: M17/0 (Adr. Sens.); test: In vivo activity, SC M17/0 tumor; conditions: Exp 1833; SC M17/0 (Adr. Sens.); 5 IV inj.; 5.4 mg/kg total dose
Protocol: as §1

[14] = tested on: LNCaP Human Prostate; test: In vivo activity, SC LNCaP tumor; conditions: Exp 1841, 6 IV inj., 6.5 mg/kg total dose
Protocol: Gross log kill is defmed as T-C/3.2 Td where T is the median time in days for the tumors of the treated group to reach 750 mg, C is the median time in days for the tumors of the control group to reach 750 mg, and Td is the tumor volume doubling time.

[15] = tested on: Human Sm Cell L. DMS273; test: In vivo activity, SC DMS273 tumor; conditions: Exp 1596; SC Human Sm Cell L. DMS273 SCID; 6 IV inj.; 7.3 mg/kg total dose
Protocol: as §1

[16] = tested on: colon adenocarcinoma #51 (Colon 51); test: In vivo activity, SC Colon 51 tumor; conditions: Exp 1636, 7 IV inj., 28.1 mg/kg total dose
[17] = tested on: Mam 16/C (taxol-sensitive mammary #16/C); test: In vivo activity, SC Mam 16/C tumor; conditions: Exp 1720, 5 IV inj., 13.2 mg/kg total dose
[18] = tested on: Mam 16/Taxol (taxol-resistant mammary #16/C/RP); test: In vivo activity, SC Mam 16/Taxol tumor; conditions: Exp 1733, 5 IV inj., 16.5 mg/kg total dose
Protocol: as §1

SMILES: CC[C@]1(O)C[C@@H]2CN(CCc3c([nH]c4ccccc34)[C@@](C(=O)OC)(c3cc4c(cc3OC)N(C)[C@H]3[C@@](O)(C(=O)OC)[C@H](OC(C)=O)[C@]5(CC)C=CCN6CC[C@]43[C@@H]65)C2)C1 [vinblastine]
- increase in cell number in the 24 hours following removal of the drug [1]: approximately 3 fold
- microtubule depolymerization after taxol pretreatment ([2]; 3 hours 10 μM taxol, then 100 nM vinblastine or 10 nM cryptophycin compound, 24 hours): pretreatment with taxol prevented microtubule depolymerization
- effect on vimentin intermediate filaments ([2]; 24 hours, 100 nM vinblastine or 10 nM cryptophycin compounds): vimentin intermediate filaments collapsed
- effect on microtubules ([2]; 24 hours, 2 μM cytochalasin B, 100 nM vinblastine or 10 nM cryptophycin compounds): marked depletion of microtubules; also recorded: complete depolymerization of microtubules
- reversibility of microtubule depolymerization after removal of the drug ([2]; 24 hr treatment (100 nM vinblastine or 10 nM cryptophycins), then 1 hour or 24 hours drug-free medium): complete morphological recovery by 24 hour

SMILES: COc1cc([C@@H]2c3cc4c(cc3[C@@H](O[C@@H]3O[C@@H]5CO[C@@H](C)O[C@H]5[C@H](O)[C@H]3O)[C@H]3COC(=O)[C@H]23)OCO4)cc(OC)c1O [VP-16, etoposide, reference compound]
- Differential in Zone Units, Valeriote Assay [3]: 260 zone units
- Differential in Zone Units, Corbett Assay ([4]; 5 μg/disk): 350 zone units

SMILES: COc1ccc(C[C@H]2NC(=O)/C=C/C[C@@H]([C@H](C)[C@H]3O[C@@H]3c3ccccc3)OC(=O)[C@H](CC(C)C)OC(=O)[C@H](C)CNC2=O)cc1Cl [Cryptophycin 1]
- KB IC50 ([5]; Table 1): 0.005 ng/mL
- KB IC50 ([5]; Table 2): 0.0025 ng/mL
- LoVo IC50 ([6]; Table 1): 0.003 ng/mL
- LoVo IC50 ([6]; Table 2): 0.001 ng/mL
- SKOV3 IC50 [7]: 0.026 ng/mL
- Differential in Zone Units, Corbett Assay ([4]; 12.5 μg/disk): > 400 zone units
- Type of Cytotoxicity, Corbett Assay ([4]; 12.5 μg/disk): E/T
- % Body Wt. Loss at Nadir [8]: Gain
- Cures [8]: 0/5
- Log Kill [8]: 1.5
- T/C [8]: 6%
- % Body Wt. Loss at Nadir [9]: -15%
- Cures [9]: 0/5
- Log Kill [9]: 1.1
- T/C [9]: 9%
- dead (animals) [9]: 1/5
- in vivo activity (in words) [10]: active against a broad spectrum of murine and human tumors implanted in mice
- cause of lethal toxicity observed during testing ([10]; mice): leucopenia
- tumor burden T/C (mean tumor burden in treated animals/mean tumor burden untreated animals) ([10]; text summary over the tumors named in the sentence): less than 10%
- antifungal activity [11]: very active against strains of Cryptococcus
- % Body Wt. Loss at Nadir [12]: -3%
- Cures [12]: 0/5
- Log Kill [12]: 2.0
- T/C [12]: 3%
- % Body Wt. Loss at Nadir [13]: -10%
- Cures [13]: 0/5
- Log Kill [13]: < 1
- T/C [13]: 23%
- % Body Wt. Loss at Nadir [14]: -6%
- Cures [14]: 0/5
- Log Kill [14]: < 1
- T/C [14]: 26%
- % Body Wt. Loss at Nadir [15]: 0%
- Cures [15]: 0/5
- Log Kill [15]: < 1
- T/C [15]: 27%
- % Body Wt. Loss at Nadir [16]: -11%
- Cures [16]: 0/5
- Log Kill [16]: 1.3
- T/C [16]: 7%
- % Body Wt. Loss at Nadir [17]: -1%
- Cures [17]: 0/5
- Log Kill [17]: 1.4
- T/C [17]: 5%
- % Body Wt. Loss at Nadir [18]: 0%
- Cures [18]: 0/4
- Log Kill [18]: 1.8
- T/C [18]: 2%
